Laboratory results published in patent US8148531B2 (Chroma Therapeutics Ltd., priority 2005, dated 2012).

Tests used:
Aurora-A = biological target: T1, Aurora-A (Homo sapiens, UniProt O14965); test: Aurora-A enzyme assay (MBP-coated Flashplate, γ-33P-ATP); assay type: biochemical; details: IC50 range class; read-out: Inhibitor Activity vs Aurora-A
T1 sequence (O14965 1-403): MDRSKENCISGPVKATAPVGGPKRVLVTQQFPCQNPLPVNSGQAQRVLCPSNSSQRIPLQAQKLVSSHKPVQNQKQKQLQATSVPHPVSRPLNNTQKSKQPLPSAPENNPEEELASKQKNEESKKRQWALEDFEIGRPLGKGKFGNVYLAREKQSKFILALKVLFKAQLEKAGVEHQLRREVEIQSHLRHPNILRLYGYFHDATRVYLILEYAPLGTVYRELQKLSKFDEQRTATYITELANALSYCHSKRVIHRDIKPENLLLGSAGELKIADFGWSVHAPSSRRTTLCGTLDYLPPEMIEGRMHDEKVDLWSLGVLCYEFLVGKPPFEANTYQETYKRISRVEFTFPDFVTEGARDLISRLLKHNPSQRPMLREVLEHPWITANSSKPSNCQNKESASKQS
Experimental: The ability of compounds to inhibit Aurora-A activity was measured using a simple microplate assay for Aurora-A activity, also suitable for high-throughput screening. In brief, γ-^33P-ATP and Aurora-A were incubated in a myelin basic protein (MBP)-coated Flashplate® to generate a scintillation signal. The plates were formatted to contain the inhibitor, controls, positive control (staurosporin) and blanks. After incubation at 37° C. for 1 hour and a subsequent wash procedure, the plates were read on a TopCount-NXT™.
The 384-well basic Flashplate® and the γ-^33P-ATP were obtained from PerkinElmer Life Sciences, Boston, Mass.
IC50 values were determined by non-linear regression analysis, after fitting the data point results to the equation for sigmoidal dose response with variable slope (% activity against log concentration of compound), using Graphpad Prism software.
Full experimental procedure for this assay can be found within the following reference: Sun, C Journal of Biomolecular Screening 9(5), 2004, 391.

HUT cell line = test: Cell inhibition assay (SRB cell viability), HUT; assay type: cell-based; details: IC50 range class, 72 h, read-out: Inhibitor Activity vs HUT cell line
In short: (§1)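 Log-phase cells seeded at 1000 cells/well, grown 24 h, then exposed to compounds (20 uM final) for 72 h. Viability read by sulphorhodamine B staining as % inhibition versus DMSO; IC50 from eight-point sigmoidal variable-slope fit.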

HCT 116 cell line = test: Cell inhibition assay (SRB cell viability), HCT 116; assay type: cell-based; details: Homo sapiens, IC50 range class, 72 h, read-out: Inhibitor Activity vs HCT 116 cell line
In short: as §1

Aurora-B = Aurora-B (Homo sapiens, UniProt Q96GD4); test: Aurora-B enzyme assay (identical protocol as Aurora-A); assay type: biochemical; details: IC50 range class; read-out: Inhibitor Activity vs Aurora-B
In short: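 Aurora-B was assayed in the same way as Aurora-A: kinase and γ-33P-ATP were incubated for 1 h at 37 °C in myelin basic protein-coated scintillation plates. After washing, bound radioactivity was counted. IC50 values came from a variable-slope sigmoidal fit of % activity against log compound concentration.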

U937 cell line = test: Cell inhibition assay (SRB cell viability), U937; assay type: cell-based; details: Homo sapiens, U-937, IC50 range class, 72 h, read-out: Inhibitor Activity vs U937 cell line
In short: as §1

Sequence of Aurora-B (Q96GD4 whole entry): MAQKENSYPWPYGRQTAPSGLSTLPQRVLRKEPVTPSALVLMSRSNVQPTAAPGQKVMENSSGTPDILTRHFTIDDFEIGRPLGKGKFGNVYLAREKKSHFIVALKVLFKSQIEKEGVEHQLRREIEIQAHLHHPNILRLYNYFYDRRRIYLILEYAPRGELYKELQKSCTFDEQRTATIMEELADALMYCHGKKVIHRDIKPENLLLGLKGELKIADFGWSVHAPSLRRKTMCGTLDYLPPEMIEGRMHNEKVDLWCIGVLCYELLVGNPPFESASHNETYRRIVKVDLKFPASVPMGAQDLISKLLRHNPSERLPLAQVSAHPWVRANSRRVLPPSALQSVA

| SMILES | IC50 (Aurora-A) | IC50 (HUT cell line) | IC50 (HCT 116 cell line) | IC50 (Aurora-B) | IC50 (U937 cell line) |
| --- | --- | --- | --- | --- | --- |
| COc1cc2c(Oc3ccc(NC(=O)c4ccccc4)cc3)ccnc2cc1OCC[C@H](N)C(=O)OC(C)(C)C [Example 50, (S)-2-Amino-4-[4-(4-benzoylamino-phenoxy)-6-methoxy-quinolin-7-yloxy]-butyric acid tert-butyl ester] | 2000 to 5000 nM | < 1000 nM | < 1000 nM | 2000 to 5000 nM | < 1000 nM |
| COc1cc2c(Oc3ccc(NC(=O)c4cccc(F)c4)cc3)ccnc2cc1OCC[C@H](N)C(=O)OC1CCCC1 [Example 55, (S)-2-Amino-4-{4-[4-(3-fluoro-benzoylamino)-phenoxy]-6-methoxy-quinolin-7-yloxy}-butyric acid cyclopentyl ester] | 2000 to 5000 nM | < 1000 nM | < 1000 nM | 2000 to 5000 nM | < 1000 nM |
| COc1cc2c(Oc3ccc(NC(=O)Nc4ccc(C(F)(F)F)cc4)cc3)ccnc2cc1OCC[C@H](N)C(=O)OC1CCCC1 [Example 93, (S)-2-Amino-4-(6-methoxy-4-{4-[3-(4-trifluoromethyl-phenyl)-ureido]-phenoxy}-quinolin-7-yloxy)-butyric acid cyclopentyl ester] | < 2000 nM | < 1000 nM | < 1000 nM | 2000 to 5000 nM | < 1000 nM |
| COc1cc2c(Oc3ccc(NC(=O)Nc4ccccc4)cc3)ccnc2cc1OCC[C@H](N)C(=O)OC1CCCC1 [Example 95, (S)-2-Amino-4-{6-methoxy-4-[4-(3-phenyl-ureido)-phenoxy]-quinolin-7-yloxy}-butyric acid cyclopentyl ester] | 2000 to 5000 nM | < 1000 nM | < 1000 nM | 2000 to 5000 nM | < 1000 nM |
| COc1cc2c(Oc3ccc(NC(=O)c4ccccc4)cc3)ccnc2cc1OCC[C@@H](N)C(=O)OC1CCCC1 [Example 99, (R)-2-Amino-4-[4-(4-benzoylamino-phenoxy)-6-methoxy-quinolin-7-yloxy]-butyric acid cyclopentyl ester] | 2000 to 5000 nM | < 1000 nM | < 1000 nM | 2000 to 5000 nM | < 1000 nM |
| COc1cc2c(Oc3ccc(NC(=O)Nc4ccccc4)cc3)ccnc2cc1OCC[C@@H](N)C(=O)OC1CCCC1 [Example 101, (R)-2-Amino-4-{6-methoxy-4-[4-(3-phenyl-ureido)-phenoxy]-quinolin-7-yloxy}-butyric acid cyclopentyl ester] | 2000 to 5000 nM | < 1000 nM | < 1000 nM | < 2000 nM | < 1000 nM |
| COc1cc2c(Oc3ccc(NC(=O)c4ccccc4)cc3)ccnc2cc1OCCC[C@H](N)C(=O)OC1CCCC1 [Example 109, (S)-2-Amino-5-[4-(4-benzoylamino-phenoxy)-6-methoxy-quinolin-7-yloxy]-pentanoic acid cyclopentyl ester] | 2000 to 5000 nM | < 1000 nM | < 1000 nM | 2000 to 5000 nM | < 1000 nM |
| COc1cc2c(Oc3ccc(NC(=O)Nc4ccccc4)cc3)ccnc2cc1OCCC[C@H](N)C(=O)OC1CCCC1 [Example 111, (S)-2-Amino-5-{6-methoxy-4-[4-(3-phenyl-ureido)-phenoxy]-quinolin-7-yloxy}-pentanoic acid cyclopentyl ester] | 2000 to 5000 nM | < 1000 nM | < 1000 nM | 2000 to 5000 nM | < 1000 nM |
| COc1cc2c(Oc3ccc(NC(=O)c4ccccc4)cc3)ccnc2cc1OCCC[C@@H](N)C(=O)OC1CCCC1 [Example 115, (R)-2-Amino-5-[4-(4-benzoylamino-phenoxy)-6-methoxy-quinolin-7-yloxy]-pentanoic acid cyclopentyl ester] | 2000 to 5000 nM | < 1000 nM | < 1000 nM | 2000 to 5000 nM | < 1000 nM |
| COc1cc2c(Oc3ccc(NC(=O)Nc4ccc(C(F)(F)F)cc4)cc3)ccnc2cc1OCCC[C@@H](N)C(=O)OC1CCCC1 [Example 119, (R)-2-Amino-5-(6-methoxy-4-{4-[3-(4-trifluoromethyl-phenyl)-ureido]-phenoxy}-quinolin-7-yloxy)-pentanoic acid cyclopentyl ester] | < 2000 nM | < 1000 nM | < 1000 nM | < 2000 nM | < 1000 nM |
| COc1cc2c(Oc3ccc(NC(=O)Nc4ccc(C(F)(F)F)cc4)cc3F)ccnc2cc1OCC[C@H](N)C(=O)OC1CCCC1 [Example 125, (S)-2-Amino-4-(4-{2-fluoro-4-[3-(4-trifluoromethyl-phenyl)-ureido]-phenoxy}-6-methoxy-quinolin-7-yloxy)-butyric acid cyclopentyl ester] | 2000 to 5000 nM | < 1000 nM | < 1000 nM | 2000 to 5000 nM | < 1000 nM |
